Article PMC11079024, “Identification of a family of species-selective complex I inhibitors as potential anthelmintics” (Nature Communications, 2024)
Values joined by “and” are separate entries in the source; they are usually repeats but may differ in a detail not shown here. Identical values can stand only once. Like-named read-outs stand apart in the source and are kept apart here.

Key:
[1] = test system: L1 wild-type C. elegans; settings: for LC50: caenorhabditis elegans; for C. elegans L1 relative motility, 3-hour post 200 µM KCN dilution: individual replicate (Rep)
[2] = biological target: C. elegans complex II (succinate dehydrogenase) (Caenorhabditis elegans, UniProt O62215+P41956+Q09545); assay: In vitro complex II activity assay, C. elegans mitochondria; assay type: biochemical; settings: for % Activity Complex II: 100 µM compound, relative to solvent control, mean (SEM); for Percent in vitro activity, Complex II (single replicate Rep1-Rep4) / Percent in vitro activity, Complex II (Mean): 100 μM of NPD compound, C. elegans mitochondria; for Percent in vitro activity, Complex II (single replicate Rep1-Rep4): individual biological replicates; for Percent in vitro activity, Complex II (Mean): mean of four biological replicates
Method: (§1) Mitochondria were isolated from the following free-living nematode strains: C. elegans—N2, CB3474, ECA882, ECA917, ECA1075, ECA1080; C. briggsae—AF16; P. pacificus—PS312; and P. hermaphrodita—B178. With the exception of the P. hermaphrodita strain B178, adult worms of each strain were grown in bulk through liquid culture to obtain mitochondria in sufficient quantities. Due to poor growth in liquid media, mixed stage populations of P. hermaphrodita were washed off and collected from NGM plates seeded with OP50. The isolation of mitochondria from all free-living nematode strains followed the protocol previously outlined in Burns et al.[24]. In brief, a 1 L saturated culture of E. coli HB101 was concentrated 20-fold in 50 mL complete S-medium. ~500,000 L1 worms synchronized from an embryo preparation performed the day prior were added to the S-media/HB101 suspension and grown to adulthood over the course of 3.5 days at 20 °C with shaking at 165 rpm. Following growth, worms were collected in 10 ×15 mL conical tubes and washed 7 times in M9 buffer. Worm suspensions were then combined into a single 15 mL conical tube and diluted to a final volume of 15 mL with M9 buffer. 1 mL aliquots of worm suspension were then distributed to 15 × 1.5 mL screw-cap microcentrifuge tubes and were pelleted at 500 g for 1 min. Excess M9 was aspirated without disturbing the worm pellet. 600 μL ice-cold isolate buffer A (250 mM sucrose, 10 mM Tris (pH 7.5), 1 mM EDTA, 1 mM PMSF (freshly prepared)) and 300 μL cold glass beads were then added to each tube. Tubes were incubated on ice for 10 min, and the worms were then lysed by bead beating (6 x 30 s, with 1 min cooling intervals). Tubes containing worm lysate were centrifuged at 1,000 g for 10 min at 4 °C and the supernatant was transferred to 15 new microcentrifuge tubes on ice. The tubes were centrifuged a second time at 1,000 g for 10 min at 4 °C and the supernatant was once again transferred to 15 new microcentrifuge tubes on ice. These tubes were then centrifuged at 16,000 g for 10 min at 4 °C. The resulting mitochondrial pellet was washed twice by re-suspension in 300 μL of ice-cold isolate buffer B (250 mM sucrose, 10 mM Tris (pH 7.5), 1 mM EDTA). Following the final wash, isolation buffer was aspirated from each tube and the pellets were flash-frozen in ethanol/dry ice and stored at −80 °C until needed.
(§2) The enzymatic activities of individual ETC complexes (I-IV) were assessed spectrophotometrically in isolated mitochondria using a Varioskan LUX Multimode plate reader (ThermoFisher Scientific). Mitochondrial pellets previously isolated were thawed on ice and resuspended in ice-cold isolation buffer (250 mM sucrose, 10 mM Tris (pH 7.5), 1 mM EDTA). The BCA assay (Walker, 1994) was used to quantify the protein concentration of mitochondria suspensions; solutions were diluted to a concentration of 0.2 mg/mL for use in all assays. For the complex I assay, mitochondria pellets were freeze-thawed on ice three times to increase enzyme accessibility. […] 20 μL mitochondria suspension was then added/mixed with a pipette to initiate the reaction. Immediately following the addition of mitochondria, absorbance was measured (complex I and II: 600 nm; complex III and IV: 550 nm) in 30 s intervals over 15 min. Enzymatic activity was determined in each reaction by plotting absorbance versus time and calculating the slope of the curve during the initial linear phase of the reaction. […] Percent activity of each complex was calculated by dividing the enzyme-specific activity of each well by the enzyme-specific activity of the corresponding solvent controls.
Complex II (succinate dehydrogenase) activity was assessed using the DCIP-coupled method previously described in Burns et al.[24].
For preliminary screens of hit compounds, compounds were screened at 100 μM; data are the average of at least three biological replicates. The complex I and II activity assays were used for additional dose-response experiments.

[3] = biological target: C. elegans (N2) complex I (NADH:ubiquinone oxidoreductase) (Caenorhabditis elegans, UniProt P24887+Q93873+Q94360); assay: biochemical; assay type: biochemical; settings: for % Activity Complex I: 100 µM compound, relative to solvent control, mean (SEM); for Percent in vitro activity, Complex I (single replicate Rep1-Rep4) / Percent in vitro activity, Complex I (Mean): 100 μM of NPD compound, C. elegans mitochondria; for Percent in vitro activity, Complex I (single replicate Rep1-Rep4): individual biological replicates; for Percent in vitro activity, Complex I (Mean): mean of four biological replicates
Method in brief: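 Complex I rate: initial linear slope of A600 over 15 min, expressed as percent of solvent control. Triple freeze-thawed mitochondria (0.2 mg/mL) in KPi pH 7.5, BSA 3 mg/mL, NADH 80 μM, decylubiquinone 60 μM, DCIP 160 μM, antimycin A, KCN.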

[4] = test system: HEK293 cells; settings: for HEK293 viability: individual replicate (Rep); for CC50: read-out: HEK293 Cell Viability Assay LC50, 2 days exposure
[5] = test system: C. elegans; assay: C. elegans chemical screens of RIKEN NPD libraries at 50 μM (hit identification in KCN survival and development/viability assays); assay type: cell-based, Caenorhabditis elegans; settings: screened at 50 μM in triplicate; hit = modified z-score < −3; KCN = KCN survival assay, Dev. & Viability = development/viability assay
[6] = test system: C. elegans complex IV (cytochrome C oxidase); assay: In vitro complex IV activity assay, C. elegans mitochondria; assay type: biochemical, Caenorhabditis elegans; settings: for % Activity Complex IV: 100 µM compound, relative to solvent control, mean (SEM); for Percent in vitro activity, Complex IV (single replicate Rep1-Rep4) / Percent in vitro activity, Complex IV (Mean): 100 μM of NPD compound, C. elegans mitochondria; for Percent in vitro activity, Complex IV (single replicate Rep1-Rep4): individual biological replicates; for Percent in vitro activity, Complex IV (Mean): mean of four biological replicates
Method: as §1, §2
Complex IV (cytochrome C oxidase) activity was determined by following the oxidation of CytC in the protocol outlined by Janssen and Boyle, 2019[60]. Reduced CytC was prepared fresh by adding 1 μL increments of 1 M dithiothreitol to a 1 mM solution of CytC and vortexing. A colour change from brown to orange/pink signals when CytC has been reduced.

[7] = test system: C. elegans complex III (decylubiquinol-cytochrome C reductase); assay: In vitro complex III activity assay, C. elegans mitochondria; assay type: biochemical, Caenorhabditis elegans; settings: for % Activity Complex III: 100 µM compound, relative to solvent control, mean (SEM); for Percent in vitro activity, Complex III (single replicate Rep1-Rep4) / Percent in vitro activity, Complex III (Mean): 100 μM of NPD compound, C. elegans mitochondria; for Percent in vitro activity, Complex III (single replicate Rep1-Rep4): individual biological replicates; for Percent in vitro activity, Complex III (Mean): mean of four biological replicates
Method: as §1, §2
Antimycin A-sensitive complex III (decylubiquinol-cytochrome C […]) activity was determined by measuring the reduction of cytochrome C (CytC) as optimized in Luo et al.[59]. Decylubiquinol for complex III assays was prepared fresh as described in Janssen and Boyle, 2019[60].

Sequence of C. elegans complex II (succinate dehydrogenase) (P41956 30-182): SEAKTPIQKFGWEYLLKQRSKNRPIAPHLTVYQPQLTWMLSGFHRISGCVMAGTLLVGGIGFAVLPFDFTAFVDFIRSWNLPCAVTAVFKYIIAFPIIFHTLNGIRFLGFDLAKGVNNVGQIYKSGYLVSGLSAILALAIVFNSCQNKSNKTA
Sequence of C. elegans complex II (succinate dehydrogenase) (Q09545 22-298): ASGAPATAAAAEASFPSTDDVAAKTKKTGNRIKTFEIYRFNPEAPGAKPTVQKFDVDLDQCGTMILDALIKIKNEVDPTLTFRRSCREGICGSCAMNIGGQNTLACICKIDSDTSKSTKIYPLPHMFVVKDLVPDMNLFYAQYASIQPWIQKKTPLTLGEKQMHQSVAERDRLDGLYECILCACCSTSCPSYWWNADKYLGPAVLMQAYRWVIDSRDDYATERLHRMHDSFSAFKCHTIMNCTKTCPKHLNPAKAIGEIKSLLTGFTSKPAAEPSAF
Sequence of C. elegans complex II (succinate dehydrogenase) (Q09508 32-646, further chain): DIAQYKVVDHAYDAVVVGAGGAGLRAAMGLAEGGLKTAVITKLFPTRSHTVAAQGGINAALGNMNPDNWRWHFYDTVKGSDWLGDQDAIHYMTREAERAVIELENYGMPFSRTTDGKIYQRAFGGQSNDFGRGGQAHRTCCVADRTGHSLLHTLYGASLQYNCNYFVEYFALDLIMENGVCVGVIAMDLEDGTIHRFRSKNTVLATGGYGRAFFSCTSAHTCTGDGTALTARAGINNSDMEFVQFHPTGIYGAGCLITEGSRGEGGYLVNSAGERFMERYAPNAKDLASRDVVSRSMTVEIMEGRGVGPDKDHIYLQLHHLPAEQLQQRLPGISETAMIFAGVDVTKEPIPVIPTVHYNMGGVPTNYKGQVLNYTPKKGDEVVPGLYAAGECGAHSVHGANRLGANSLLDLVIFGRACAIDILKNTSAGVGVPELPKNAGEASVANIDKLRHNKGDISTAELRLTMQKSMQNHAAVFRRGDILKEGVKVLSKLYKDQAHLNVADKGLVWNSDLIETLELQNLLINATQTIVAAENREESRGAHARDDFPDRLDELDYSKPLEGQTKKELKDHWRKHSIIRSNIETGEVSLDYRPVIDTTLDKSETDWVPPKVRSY
Sequence of C. elegans complex II (succinate dehydrogenase) (O62215 31-145): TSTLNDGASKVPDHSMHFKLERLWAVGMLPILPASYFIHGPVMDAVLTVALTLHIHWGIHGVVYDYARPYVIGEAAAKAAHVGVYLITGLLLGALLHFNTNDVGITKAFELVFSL
Sequence of C. elegans (N2) complex I (NADH:ubiquinone oxidoreductase) (Q94360 17-199): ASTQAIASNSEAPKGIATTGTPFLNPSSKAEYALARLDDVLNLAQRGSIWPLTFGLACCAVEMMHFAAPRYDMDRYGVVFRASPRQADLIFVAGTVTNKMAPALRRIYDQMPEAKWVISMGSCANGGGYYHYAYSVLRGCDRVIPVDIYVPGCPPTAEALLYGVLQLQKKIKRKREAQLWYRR
Sequence of C. elegans (N2) complex I (NADH:ubiquinone oxidoreductase) (P24887 whole entry): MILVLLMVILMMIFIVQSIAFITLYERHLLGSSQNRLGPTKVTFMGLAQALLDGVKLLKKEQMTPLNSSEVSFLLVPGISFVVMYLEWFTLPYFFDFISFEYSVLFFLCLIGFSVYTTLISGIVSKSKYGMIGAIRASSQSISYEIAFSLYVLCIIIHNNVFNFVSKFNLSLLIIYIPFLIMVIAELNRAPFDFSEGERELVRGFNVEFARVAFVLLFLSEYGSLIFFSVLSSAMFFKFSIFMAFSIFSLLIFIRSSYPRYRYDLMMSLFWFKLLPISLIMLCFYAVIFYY
Sequence of C. elegans (N2) complex I (NADH:ubiquinone oxidoreductase) (Q93873 31-482): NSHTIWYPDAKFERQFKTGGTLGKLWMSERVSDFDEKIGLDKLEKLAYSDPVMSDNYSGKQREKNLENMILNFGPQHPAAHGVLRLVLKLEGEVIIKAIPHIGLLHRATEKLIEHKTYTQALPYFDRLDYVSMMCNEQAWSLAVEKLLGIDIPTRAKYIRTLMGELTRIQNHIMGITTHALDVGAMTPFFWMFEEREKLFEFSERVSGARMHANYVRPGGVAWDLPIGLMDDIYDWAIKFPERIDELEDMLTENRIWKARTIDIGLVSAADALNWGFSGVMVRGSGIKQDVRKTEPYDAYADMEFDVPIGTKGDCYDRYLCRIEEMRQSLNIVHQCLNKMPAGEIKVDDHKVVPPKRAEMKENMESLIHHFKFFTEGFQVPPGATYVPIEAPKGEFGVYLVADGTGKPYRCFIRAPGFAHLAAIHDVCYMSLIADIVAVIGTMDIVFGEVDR

| Structure (SMILES) | LC50 [1] [µM] | % Activity Complex II [2] | Percent in vitro activity, Complex II (single replicate Rep1-Rep4) [2] | Percent in vitro activity, Complex II (Mean) [2] [%] | % Activity Complex I [3] | Percent in vitro activity, Complex I (single replicate Rep1-Rep4) [3] | Percent in vitro activity, Complex I (Mean) [3] [%] | CC50 [4] [µM] | Hit Type [5] | % Activity Complex IV [6] | Percent in vitro activity, Complex IV (single replicate Rep1-Rep4) [6] | Percent in vitro activity, Complex IV (Mean) [6] [%] | % Activity Complex III [7] | Percent in vitro activity, Complex III (single replicate Rep1-Rep4) [7] | Percent in vitro activity, Complex III (Mean) [7] [%] | also measured |
| --- | --- | --- | --- | --- | --- | --- | --- | --- | --- | --- | --- | --- | --- | --- | --- | --- |
| COc1ccc(-c2cc(=Nc3ccccc3N)c3ccccc3o2)cc1 [NPD6380] | 14.3 | 102.27 (2.46) % | 113.834% and 92.410% and 96.068% and 106.772% | 102.271 | 86.43 (2.27) % | 77.779% and 82.402% and 98.876% and 86.642% | 86.425 | 29.2 | KCN | 115.38 (4.42) % | 108.559% and 111.425% and 100.551% and 140.996% | 115.383 | 107.06 (1.36) % | 109.305% and 109.700% and 110.292% and 98.948% | 107.062 | C. elegans L1 relative motility, 3-hour post 200 µM KCN dilution ([1]; dose 0.4 µM): 1.243 and 1.189; C. elegans L1 relative motility, 3-hour post 200 µM KCN dilution ([1]; dose 0.8 µM): 1.074 and 1.086; C. elegans L1 relative motility, 3-hour post 200 µM KCN dilution ([1]; dose 3.1 µM): 1.020 and 1.053; C. elegans L1 relative motility, 3-hour post 200 µM KCN dilution ([1]; dose 6.3 µM): 1.040 and 1.101; C. elegans L1 relative motility, 3-hour post 200 µM KCN dilution ([1]; dose 12.5 µM): 0.696 and 0.688; C. elegans L1 relative motility, 3-hour post 200 µM KCN dilution ([1]; dose 25 µM): 0.136 and 0.141; C. elegans L1 relative motility, 3-hour post 200 µM KCN dilution ([1]; dose 50 µM): 0.030 and 0.035; HEK293 viability ([4]; dose 0.8 µM): 0.998; HEK293 viability ([4]; dose 3.1 µM): 0.945 and 0.951; HEK293 viability ([4]; dose 6.3 µM): 0.687 and 0.797; HEK293 viability ([4]; dose 12.5 µM): 0.542 and 0.584; HEK293 viability ([4]; dose 25 µM): 0.441 and 0.466; HEK293 viability ([4]; dose 50 µM): 0.431 and 0.445 |
| COc1ccc(N=c2cc(-c3ccc(OC)cc3)oc3ccc(O)cc23)cc1 [NPD8034] | 12 | 89.02 (4.77) % | 117.368% and 83.101% and 77.239% and 78.358% | 89.016 | 99.30 (2.57) % | 99.316% and 113.812% and 92.579% and 91.475% | 99.295 | 11.2 | KCN | 96.04 (2.78) % | 88.996% and 91.859% and 90.669% and 112.640% | 96.041 | 95.08 (1.51) % | 95.115% and 96.990% and 101.326% and 86.891% | 95.080 |  |
| Cc1cc(O)c(C(=O)/C=C/c2ccccc2)c(=O)o1 [NPD8366] | 11.6 | 86.41 (3.37) % | 86.839% and 91.030% and 67.920% and 99.847% | 86.409 | 102.66 (1.57) % | 109.574% and 101.002% and 105.233% and 94.820% | 102.657 | 19.7 | KCN | 97.72 (2.77) % | 88.563% and 105.997% and 87.809% and 108.514% | 97.721 | 76.74 (1.10) % | 80.994% and 79.847% and 74.350% and 71.759% | 76.737 |  |
